The numbers were not newly measured in patent US5709992A, “Method for disinfecting red blood cells” (priority 1995, dated 1998), which cites them from elsewhere.

This data set deals with erythrocyte glutathione (GSH) peroxidase (Homo sapiens, UniProt P07203). The settings on record: read-out: Km (peroxide), effective at very low concentrations of peroxide.

Each structure is given as a SMILES string.

Sequence of erythrocyte glutathione (GSH) peroxidase (P07203 whole entry): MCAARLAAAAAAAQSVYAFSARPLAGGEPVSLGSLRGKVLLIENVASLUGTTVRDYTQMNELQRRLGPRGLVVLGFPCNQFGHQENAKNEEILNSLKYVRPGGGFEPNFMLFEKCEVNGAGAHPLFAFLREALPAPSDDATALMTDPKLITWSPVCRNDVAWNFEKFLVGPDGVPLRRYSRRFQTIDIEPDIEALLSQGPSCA

As to `OO` [peroxide, hydrogen peroxide], the Km is 1 µM.
